Experimental data as given in US20210251239A1 (priority 2018, published 2021).
Converted amounts (≈) assume the structure as drawn.

Columns and labels:
[1] = system: Colletotrichum gleosporoides; experiment: MTT cell viability assay for determination of IC50 for chemical fungicides; assay type: cell-based; conditions: read-out: IC50 for C. gleosporoides
Experimental: (§1) Assays were carried out in 1.5 mL microcentrifuge tubes. The indicated fungicides were dissolved in DMSO at a stock concentration of 1 mg/mL. Enzymes were desalted into 50 mM MES buffer, pH 6.0 using a 200 mL Sephadex G25 column with 9.5 mL/min flowrate before adding to the germination assay. […] The reaction mixture without fungicide served as a negative inhibition control, and a reaction mixture containing 0.2 mg/mL mannase acid or 20 mg/mL M-PEG (1,2-propanediol) served as a positive inhibition control. The spore germination mixture was incubated at 27° C. for 3 days. At the end of the incubation period, 200 μL of 3-(4,5-dimethylthiazol-2-yl)-2,5-diphenyltetrazolium bromide (MTT) dye was added to the existing 400 μL of assay culture and was incubated for another 3 hr at 27° C. in the dark. The tubes were then centrifuged, and the supernatants were discarded. To the residue left in the tubes, 200 μL of DMSO was added to dissolve the formazan formed by the live fungal cells. The tubes were vortexed and centrifuged again. 100 μL of the supernatant from each tube was transferred into a separate well in a 96-well microtiter plate and absorbance was measured at 540 nm. Inhibition of fungal germination and growth by enzymes was determined relative to the uninhibited control for samples without chemical fungicide, and relative to the 50% inhibited cultures for samples containing each of the chemical fungicides tested.
(§2) Each fungicide was dissolved in DMSO at 1 mg/mL concentration, then added to the germination assay at final concentrations of 0, 0.01, 0.02, 0.04, 0.06, 0.08 mg/mL.

[2] = system: Fusarium verticilloides; experiment: as above; assay type: cell-based; conditions: for IC50: Fusarium, read-out: IC50 for F. verticilloides
Experimental: as §1, §2

[3] = biological target: Septoria nodorum; assay type: cell-based
[4] = biological target: Fusarium graminearum; assay type: cell-based
[5] = biological target: Fusarium virguliforme; assay type: cell-based
[6] = biological target: Botrytis cinerea

Compound | IC50 [1] [µg/mL] | IC50 [2] [µg/mL] | EC50 Enzyme [3] [µg/mL] | IC50 plus chemistry [3] [µg/mL] | EC50 Enzyme [5] [µg/mL] | IC50 plus chemistry [5] [µg/mL] | other results
OC(Cc1ccccc1Cl)(Cn1nc[nH]c1=S)C1(Cl)CC1 (centres unmarked) [Prothioconazole, prothioconazole] | 13 (≈ 37.8 µM) | 22 (≈ 63.9 µM) | – | – | – | – | –
CON=C(C(=O)OC)c1ccccc1CON=C(C)c1cccc(C(F)(F)F)c1 [Trifloxystrobin, trifloxystrobin] | 18 (≈ 44.1 µM) | 6 (≈ 14.7 µM) | – | – | – | – | –
catalase | – | – | 285 | >500 | – | – | –
glucose oxidase | – | – | <1 | <1 | <1 | <1 | EC50 Enzyme [4]: <1 µg/mL; IC50 plus chemistry [4]: <1 µg/mL; EC50 Enzyme [6]: <1 µg/mL; IC50 plus chemistry [6]: <1 µg/mL
lysozyme | – | – | – | – | >500 | 2 | –
propineb [Antracol (Propineb)] | – | – | – | – | – | – | IC50 for F. verticilloides ([2]; 50% inhibition of germination and growth, fit IC50): ~300 µg/mL
